The values below are quoted from earlier work in PubChem BioAssay AID1259409 (Chemical Carcinogenesis Research Information System (CCRIS), 2018).

For the data set, the system named is rodent chemically induced tumor inhibition, incidence and multiplicity. Nature of the data set: CCRIS tumor inhibitor studies.

Turning to `C=C1/C(=C\C=C2/CCC[C@]3(C)[C@@H]([C@H](C)CC[C@@H](CC)C(C)C)CC[C@@H]23)C[C@@H](O)C[C@@H]1O`, the “tumour outcome (control, treated, inhibition, significance)” value (Carcinogen: 7,12-DIMETHYLBENZ[A]ANTHRACENE (57-97-6), Dose [Inhibitor]: 40 MG/KG DIET 1 WK AFTER CARCINOGEN TO END, Route [Inhibitor]: DIET, Species: RAT, Strain/Sex: SPRAGUE-DAWLEY/FEMALE, Target Tissue: Type of Lesion: MAMMARY GLAND: TUMOR, Dose [Carcinogen]: 15 MG AT 50 D OF AGE, ONCE) was 85%, 50%, 41%, p<0.05; the “tumour outcome (control, treated, inhibition, significance)” value (Carcinogen: 7,12-DIMETHYLBENZ[A]ANTHRACENE (57-97-6), Dose [Inhibitor]: 40 MG/KG DIET 2 WKS BEFORE CARCINOGEN AND 1 WK AFTER CARCINOGEN, Route [Inhibitor]: DIET, Species: RAT, Strain/Sex: SPRAGUE-DAWLEY/FEMALE, Target Tissue: Type of Lesion: MAMMARY GLAND: TUMOR, Dose [Carcinogen]: 15 MG AT 50 D OF AGE, ONCE) is 85%, 70%, 18%, not significant; the “tumour outcome (control, treated, inhibition, significance)” value (Carcinogen: 7,12-DIMETHYLBENZ[A]ANTHRACENE (57-97-6), Dose [Inhibitor]: 40 MG/KG DIET 2 WKS BEFORE CARCINOGEN TO END, Route [Inhibitor]: DIET, Species: RAT, Strain/Sex: SPRAGUE-DAWLEY/FEMALE, Target Tissue: Type of Lesion: MAMMARY GLAND: TUMOR, Dose [Carcinogen]: 15 MG AT 50 D OF AGE, ONCE) is recorded as 85%, 50%, 41%, not calculated; the “tumour outcome (control, treated, inhibition, significance)” value (Carcinogen: N-METHYL-N-NITROSOUREA, 684-93-5, Dose [Inhibitor]: 0, 25 UG/KG DIET AT 65 D OF AGE FOR THE DURATION OF THE STUDY (STUDY DURATION: 120 D), Route [Inhibitor]: ORAL, Species: RAT, Strain/Sex: SPRAGUE-DAWLEY, Target Tissue: Type of Lesion: MAMMARY GLAND: TUMOR, Dose [Carcinogen]: 50 MG/KG BW ONCE AT 80 D OF AGE, Promoter: NONE) was 12/15 (80%), 8/15 (53%), 33%, not significant; the “tumour outcome (control, treated, inhibition, significance)” value (Carcinogen: N-METHYL-N-NITROSOUREA, 684-93-5, Dose [Inhibitor]: 0, 50 UG/KG DIET AT 65 D OF AGE FOR THE DURATION OF THE STUDY (STUDY DURATION: 120 D), Route [Inhibitor]: ORAL, Species: RAT, Strain/Sex: SPRAGUE-DAWLEY, Target Tissue: Type of Lesion: MAMMARY GLAND: TUMOR, Dose [Carcinogen]: 50 MG/KG BW ONCE AT 80 D OF AGE, Promoter: NONE) was 12/15 (80%), 7/15 (47%), 41%, p=0.03. The outcome by setting is: (Carcinogen: AZOXYMETHANE (25843-45-2), Dose [Inhibitor]: 25 UG/KG DIET 2 WKS AFTER CARCINOGEN TO END (STUDY DURATION: 10 WKS), Route [Inhibitor]: DIET, Species: MOUSE, Strain/Sex: CF-1, Target Tissue: Type of Lesion: COLON: TOTAL ABERRANT CRYPT FOCI (SURROGATE FOR COLON TUMOR), Dose [Carcinogen]: 10 MG/KG BW WEEKLY FOR 2 WKS (STUDY DURATION: 10 WKS)) 9.6, 2.0, 79%, not calculated; (Carcinogen: AZOXYMETHANE (25843-45-2), Dose [Inhibitor]: 25 UG/KG DIET 2 WKS BEFORE CARCINOGEN TO 2 WKS AFTER (STUDY DURATION: 10 WKS), Route [Inhibitor]: DIET, Species: MOUSE, Strain/Sex: CF-1, Target Tissue: Type of Lesion: COLON: TOTAL ABERRANT CRYPT FOCI (SURROGATE FOR COLON TUMOR), Dose [Carcinogen]: 10 MG/KG BW WEEKLY FOR 2 WKS (STUDY DURATION: 10 WKS)) 9.6, 2.8, 71%, not calculated; (Carcinogen: AZOXYMETHANE (25843-45-2), Dose [Inhibitor]: 25 UG/KG DIET 2 WKS BEFORE CARCINOGEN TO END (STUDY DURATION: 10 WKS), Route [Inhibitor]: DIET, Species: MOUSE, Strain/Sex: CF-1, Target Tissue: Type of Lesion: COLON: TOTAL ABERRANT CRYPT FOCI (SURROGATE FOR COLON TUMOR), Dose [Carcinogen]: 10 MG/KG BW WEEKLY FOR 2 WKS (STUDY DURATION: 10 WKS)) 9.6, 1.8, 81%, not calculated; (Carcinogen: AZOXYMETHANE (25843-45-2), Dose [Inhibitor]: 25 UG/KG DIET 7 D BEFORE CARCINOGEN TO END OF STUDY, Route [Inhibitor]: DIET, Species: MOUSE, Strain/Sex: CF-1, Target Tissue: Type of Lesion: COLON: ABERRANT CRYPT FOCI (SURROGATE FOR COLON TUMOR), Dose [Carcinogen]: 10 MG/KG BW WEEKLY FOR 2 WKS) 29%, 1.4, 95%, p<0.001; (Carcinogen: N-METHYL-N-NITROSOUREA ( 684-93-5), Dose [Inhibitor]: 0, 25, 50 UG/KG DIET 2 WKS BEFORE CARCINOGEN CONTINUING FOR 120 D (STUDY DURATION: 120 D), Dose [Inhibitor]: 0, 25, 50 UG/KG DIET 2 WKS BEFORE CARCINOGEN CONTINUING FOR 120 D (STUDY DURATION: 120 D), Route [Inhibitor]: DIET, Species: RAT, Strain/Sex: SPRAGUE-DAWLEY/FEMALE, Target Tissue: Type of Lesion: MAMMARY GLAND: TUMOR, Dose [Carcinogen]: 50 MG/KG BW ONCE) 80%, 53%, 34%, not calculated; 47%, 41%, not calculated.
